In patent US7534763B2 (Bristol-Myers Squibb Company, priority 2004, dated 2009):
Where two headings read alike, the source gives them in different places. Where a SMILES comes first, the peptide text is derived from it. [ ]: non-standard residue; d: D form. ξ: configuration not given here. Ala(6-(2-MePh)pyridin-3-yl) = Cc1ccccc1-c1ccc(C[C@H](N)C(=O)O)cn1; Bip(2'-Et-4'-OMe) = CCc1cc(OC)ccc1-c1ccc(C[C@H](N)C(=O)O)cc1; Bip(2'-Me) = Cc1ccccc1-c1ccc(C[C@H](N)C(=O)O)cc1; αMePhe(2-F) = C[C@](N)(Cc1ccccc1F)C(=O)O; ξαMePhe(2-F) = CC(N)(Cc1ccccc1F)C(=O)O; Thr(3ξ) = CC(O)[C@H](N)C(=O)O; ξαMeP = CC1(C(=O)O)CCCN1; Aib = CC(C)(N)C(=O)O

Columns and labels:
[1] = Dog pharmacokinetic study (iv and sc, solution vehicles); assay type: in vivo; conditions: for Exposure in dogs (sc@67 μg/kg): Table I; for AUC: Table II, read-out: Exposure in dogs (sc@67 μg/kg)
Protocol: The pharmacokinetic parameters of the compound of SEQ ID NO:9 were determined in male beagle dogs (n=4, 14±1 kg). Following an overnight fast, each animal received the compound of SEQ ID NO:9 either as an intravenous bolus via femoral vein (67 μg/kg) or by subcutaneous injection given at near the shoulder blades (67 μg/kg). Each animal received both intravenous and subcutaneous doses with a one-week washout between doses following a crossover design. […] Serial blood samples were collected in EDTA-containing microcentrifuge tubes at predose, 0.083, 0.25, 0.5, 0.75, 1, 2, 4, 6, 8, 24, and 30 hours post-dose after intravenous administration; at predose, 0.25, 0.5, 0.75, 1, 2, 4, 6, 8, 24, and 30 hours post-dose after subcutaneous administration. Approximately 0.3 mL of blood was collected at each time point. Blood samples were immediately centrifuged at 4° C. The obtained plasma was frozen with dry ice and stored at −20° C. Plasma drug levels were determined using the LC-MS/MS assay described above.
Plasma samples from in vivo dog study were prepared for analysis by precipitating plasma proteins with two volumes of acetonitrile containing an internal standard. The samples were vortex mixed and removed the precipitated proteins by centrifugation. The resulting supernatants were transferred to a 96-well plate and 10 μL were injected for analysis. Samples were prepared with the Packard Multiprobe II and Quadra 96 Liquid Handling System.
The HPLC system consisted of two Shimadzu LC10AD pumps (Columbia, Md.), a CTC PAL autosampler (Leap Technologies, Switzerland). The column used was a YMC Hydrosphere C18 (2.0×50 mm, 3 μm) (YMC, Inc., Milford, Ma.). The column temperature was maintained at 50° C. and the flow rate was 0.3 mL/minute. The mobile phase A consisted of 10 mM ammonium formate and 0.1% formic acid in water and mobile phase B consisted of 0.1% formic acid in acetonitrile. The initial mobile phase composition was 5% B, and remained at 5% B for one minute to equilibrate the column. The composition was ramped to 95% B over two minutes and held there for one additional minute. The mobile phase was then returned to initial conditions in one minute. Total analysis time was five minutes. A switching valve was used. The eluents between 0-1 minute were diverted to the waste.
The HPLC was interfaced to a Sciex API 4000 mass spectrometer, (Applied Biosystems, Foster City, Calif.) and was equipped with a TurboIonspray ionization source. Ultra high purity nitrogen was used as the nebulizing and turbo gas. The temperature of turbo gas was set at 300° C. and the interface heater was set at 60° C. Data acquisition utilized selected reaction monitoring (SRM). Ions representing the (M+2H)^2+ species for the compound of SEQ ID NO:9, and (M+2H)^2+ for BMS-501143 (IS) were selected in Q1 and were collisionally dissociated with high purity nitrogen at a pressure of 3.5×10^−3torr to form specific product ions which were subsequently monitored by Q3.
The standard curve concentrations, ranging from 1 to 1000 nM and from 4 to 5000 nM, were used for the in vivo samples obtained from low and high doses, respectively. The curves were fitted with a quadratic regression weighted by reciprocal […]. Standards were analyzed in duplicate. Quality control (QC) samples, prepared in blank matrix at the same concentrations as the standard were also analyzed in each analytical set. For the compound of SEQ ID NO:9, the calculated concentrations of more than 80% of the QCs were within 20% of nominal concentration, indicating acceptable assay performance.
The compound of SEQ ID NO:9 plasma concentration vs. time data were analyzed by noncompartmental methods using the […]™ software program. The Cmax and Tmax values were recorded directly from experimental observations. The AUC0-n and AUCtot values were calculated using a combination of linear and log trapezoidal summations. […]

[2] = Solubility of protamine/Compound of SEQ ID NO:9 adduct and in protamine solution; assay type: physicochemical; conditions: MeOH
Source text: Thus, the administration of the protamine/Compound of SEQ ID NO:9 adduct may need a suitable suspending agent; or it maybe injected as dry powder.
Therefore, suspension of the compound of SEQ ID NO:9 in the presence of protamine could still provide extended release effect without using pre-formed protamine/SEQ ID NO:9 adduct.

[3] = Exposure during ipGTT in ob/ob mice; assay type: in vivo; conditions: sc
Protocol: (§1) Peptides were dissolved in an appropriate vehicle at a concentration in nmol/ml equivalent to the dose that was to be administered in nmol/kg so that each mouse would receive the same volume/weight of dosing solution. Male C57BL/6J-ob/ob mice (10 weeks old) were randomized into groups of 6 mice per group based on fed plasma glucose and body weight. After an overnight fast, mice were weighed and placed in the experimental lab. After 30 min in the environment, the mice were bled via tail tip at −30 min and immediately injected subcutaneously (sc) with vehicle or the peptide dissolved in vehicle (0.1 ml solution/100 g body weight). At time 0 the mice were bled and then injected intraperitoneally with 50% glucose (2 g/kg) to initiate the intraperitoneal glucose tolerance test (ipGTT). The mice were bled 30, 60, 120 and 180 min after the glucose injection. Blood samples were drawn into potassium EDTA, placed on ice during the study and subsequently centrifuged for 10 min at 3000 rpm at 4° C. Plasma samples were diluted 11-fold for glucose analysis in the Cobas System. Another 5 μl plasma sample was diluted 5-fold with 20 μl of Sample Diluent (Insulin ELISA assay kit, Crystal Chem Inc.) and stored at −20° C. for subsequent analysis using the Ultra Sensitive Mouse Insulin ELISA kit (Crystal Chem Inc.).

[4] = Solubility of compound of SEQ ID NO:9 in the presence of Zn(II) / Zn adduct; assay type: physicochemical; conditions: pH 6.8, 50 mM phosphate buffer
Protocol: Once the Zn/Compound of SEQ ID NO:9 adduct was formed, formulation development studies were conducted in order to evaluate the solubility of the compound of SEQ ID NO:9 in the presence of Zn(II). An excess amount of the compound of SEQ ID NO:9 was suspended in pH 6.8, 50 mM phosphate buffer. The suspension was then placed on an orbital shaker (Model, 100 RPM) at ambient temperature for 12 hours. The suspension was then centrifuged (Model, speed) and the saturated the clear supernatant of the compound of SEQ ID NO:9 was collected into 10 ml centrifuge tubes. A predetermined amount of zinc acetate solution (50 mM, pH 6.8 phosphate buffer) was added into the saturated solution and then precipitated. The concentration of the compound of SEQ ID NO:9 in solution was obtained by centrifuging the suspension and analyzing the clear supernatants by HPLC.
To confirm that the Zn/Compound of SEQ ID NO:9 binding is reversible, the Zn/Compound of SEQ ID NO:9 adduct was suspended in pH 6.8, 50 mM phosphate buffer. A strong chelating agent for Zn(II), EDTA, was added into the suspension in excess amount. The Zn/Compound of SEQ ID NO:9 suspension with and without EDTA was centrifuged and the supernatants were injected into HPLC.

ob/ob mice = assay: intraperitoneal glucose tolerance test (ipGTT) after sc injection in ob/ob mice (plasma glucose, insulin); assay type: in vivo; conditions: for % AUC Reduction in Plasma Glucose in an IP Glucose Tolerance Test after SC Injection of Compound: 10 nmol/kg, vs vehicle group; for effect on postprandial plasma glucose (in words): ipGTT 0-180 or 210 min; for Potency in ob/ob mice, ED50: sc injection, ipGTT, plasma glucose AUC
Protocol: as §1

[5] = male, beagle, plasma, sc, 67 ug/kg, dog, subcutaneous 67 μg/kg, propylene glycol:phosphate buffer (50:50)
[6] = male, beagle, dog, plasma, sc, 67 ug/kg, vehicle propylene glycol/pH 7.4 phosphate buffer (1:1)

In the case of `CCc1cc(OC)ccc1-c1ccc(C[C@H](NC(=O)[C@H](CC(=O)O)NC(=O)[C@H](CO)NC(=O)[C@@H](NC(=O)[C@](C)(Cc2ccccc2F)NC(=O)[C@@H](NC(=O)CNC(=O)[C@H](CCC(=O)O)NC(=O)C(C)(C)NC(=O)[C@@H](N)Cc2c[nH]cn2)[C@@H](C)O)[C@@H](C)O)C(=O)N[C@@H](Cc2ccc(-c3ccccc3C)nc2)C(N)=O)cc1` [SEQ ID NO: 9] (H-H[Aib]EGT[αMePhe(2-F)]TSD[Bip(2'-Et-4'-OMe)][Ala(6-(2-MePh)pyridin-3-yl)]-NH2), the “Exposure in dogs (sc@67 μg/kg)” value ([1]; vehicle 0.2 M Tris buffer (pH 8.0)) is reported as 0.452 µM·h, the “Vss relative to extracellular fluid” value ([1]; dog, iv, extracellular fluid 0.14 L/kg) is reported as 71 % of extracellular fluid and the “systemic clearance as % of liver blood flow” value ([1]; dog, iv, liver blood flow 31 mL/min/kg) is reported as 3.2 % of liver blood flow. The “Vss relative to vascular fluid” value ([1]; dog, iv, vascular fluid 0.05 L/kg) was 2 times of vascular fluid, the clearance ([1]; male, beagle, blood, 67 ug/kg, dog, intravenous 67 μg/kg, propylene glycol:phosphate buffer (50:50), read-out: CLB (systemic blood clearance)) was 0.9 ± 0.2 mL/min/kg and the MRT ([1]; male, beagle, plasma, 67 ug/kg, dog, intravenous 67 μg/kg, propylene glycol:phosphate buffer (50:50)) was 3 ± 1 h. For the same compound, the clearance ([1]; male, beagle, plasma, 67 ug/kg, dog, intravenous 67 μg/kg, propylene glycol:phosphate buffer (50:50), read-out: CLp) was 0.6 ± 0.1 mL/min/kg, the Vd ([1]; male, beagle, plasma, 67 ug/kg, dog, intravenous 67 μg/kg, propylene glycol:phosphate buffer (50:50), read-out: VSS) was 0.1 ± 0.03 L/kg and the Cmax [1, 5] was 90 ± 29 nM. For the same compound, the Tmax [1, 5] was 5 ± 1 h, the solubility [2] was greater than 50000 µg/mL and the “Exposure/dose during ipGTT in ob/ob mice” value [3] was 18 nM * h/nmol/kg. For the same compound, the solubility thermodynamic ([4]; aqueous buffer, 25° C., excess EDTA) was 18 µg/mL, the “solubility in the presence of Zn(II) / of the Zn adduct (in words)” value [4] was “continued to decrease until below the detection limit of HPLC” and the “% AUC Reduction in Plasma Glucose in an IP Glucose Tolerance Test after SC Injection of Compound” value (“% AUC Reduction in Plasma Glucose” below) (ob/ob mice; ob/ob mice) was −68% (p < 0.0001). The “effect on postprandial plasma glucose (in words)” value (shortened to “effect”) (ob/ob mice; ob/ob mice, sc) was “statistically significant decrease”, the “Potency in ob/ob mice, ED50” value (ob/ob mice) was 5 nmol/kg and the “Potency in ob/ob mice, ED50” value (ob/ob mice; listed as 9) was “ED50 = 5 nmoles/kg”.
In the case of `CCc1cc(OC)ccc1-c1ccc(C[C@H](NC(=O)[C@H](CC(=O)O)NC(=O)[C@H](CO)NC(=O)[C@@H](NC(=O)[C@](C)(Cc2ccccc2F)NC(=O)[C@@H](NC(=O)CNC(=O)[C@H](CCC(=O)O)NC(=O)C(C)(C)NC(=O)[C@@H](N)Cc2c[nH]cn2)C(C)O)C(C)O)C(=O)N[C@@H](Cc2ccc(-c3ccccc3C)cc2)C(N)=O)cc1` (stereo partly shown) [Compound I, reference compound] (H-H[Aib]EG[Thr(3ξ)][αMePhe(2-F)][Thr(3ξ)]SD[Bip(2'-Et-4'-OMe)][Bip(2'-Me)]-NH2), the “Exposure in dogs (sc@67 μg/kg)” value ([1]; vehicle propylene glycol/pH 7.4 phosphate buffer (1:1)) is reported as 0.089 µM·h, the AUC [1, 6] is reported as 0.089 µM·h and the “Exposure/dose during ipGTT in ob/ob mice” value [3] is reported as 22 nM * h/nmol/kg. For the same compound, the “% AUC Reduction in Plasma Glucose” value (ob/ob mice; ob/ob mice) was −15% (p = 0.247, NS), the “effect” value (ob/ob mice; ob/ob mice, sc) was “decreasing in a dose-dependent manner” and the “Potency in ob/ob mice, ED50” value (ob/ob mice) was “ED50 = 50 nmoles/kg”. The “Potency in ob/ob mice, ED50” value (ob/ob mice; listed as compound I) was 50 nmol/kg.
In the case of `CCc1cc(OC)ccc1-c1ccc(C[C@H](NC(=O)[C@H](CC(=O)O)NC(=O)[C@H](CO)NC(=O)[C@@H](NC(=O)C(C)(Cc2ccccc2F)NC(=O)[C@@H](NC(=O)CNC(=O)[C@H](CCC(=O)O)NC(=O)C2(C)CCCN2C(=O)[C@@H](N)Cc2c[nH]cn2)[C@@H](C)O)[C@@H](C)O)C(=O)N[C@@H](Cc2ccc(-c3ccccc3C)nc2)C(N)=O)cc1` (stereo partly shown) [SEQ ID NO: 118] (H-H[ξαMeP]EGT[ξαMePhe(2-F)]TSD[Bip(2'-Et-4'-OMe)][Ala(6-(2-MePh)pyridin-3-yl)]-NH2), the AUC [1, 6] is reported as 4.02 µM·h, the “Exposure/dose during ipGTT in ob/ob mice” value [3] is reported as 4.4 nM * h/nmol/kg and the “% AUC Reduction in Plasma Glucose” value (ob/ob mice; ob/ob mice) is reported as −70% (p < 0.001). For the same compound, the “plasma glucose AUC decrease” value (ob/ob mice; ob/ob mice, sc, 30 nmol/kg) was 81%, the “effect” value (ob/ob mice; ob/ob mice, sc) was “statistically significant decrease” and the “Potency in ob/ob mice, ED50” value (ob/ob mice) was 2.5 nmol/kg.
